According to US7524973B2, “Nitrate esters of phenylaminothiophenacetic acid derivatives” (Altana Pharma AG, priority 2003, dated 2009):

Experiments:
COX-2 = molecular target: T1, COX-2 (Homo sapiens, UniProt P35354); assay: In vitro Cox-2 assay (LPS-stimulated whole blood, PGE2); assay type: cell-based; conditions: heparinized blood, LPS 24 h, PGE2 immunoassay; read-out: Inhibition of COX-2 activity [measured as pIC50] (converted)
T1 construct: Fresh blood was collected in heparinized (8 U/ml, Roche, Switzerland) tubes; from tissue; host or cells: heparinized fresh whole blood stimulated with LPS for 24 h
T1 sequence (P35354 18-604): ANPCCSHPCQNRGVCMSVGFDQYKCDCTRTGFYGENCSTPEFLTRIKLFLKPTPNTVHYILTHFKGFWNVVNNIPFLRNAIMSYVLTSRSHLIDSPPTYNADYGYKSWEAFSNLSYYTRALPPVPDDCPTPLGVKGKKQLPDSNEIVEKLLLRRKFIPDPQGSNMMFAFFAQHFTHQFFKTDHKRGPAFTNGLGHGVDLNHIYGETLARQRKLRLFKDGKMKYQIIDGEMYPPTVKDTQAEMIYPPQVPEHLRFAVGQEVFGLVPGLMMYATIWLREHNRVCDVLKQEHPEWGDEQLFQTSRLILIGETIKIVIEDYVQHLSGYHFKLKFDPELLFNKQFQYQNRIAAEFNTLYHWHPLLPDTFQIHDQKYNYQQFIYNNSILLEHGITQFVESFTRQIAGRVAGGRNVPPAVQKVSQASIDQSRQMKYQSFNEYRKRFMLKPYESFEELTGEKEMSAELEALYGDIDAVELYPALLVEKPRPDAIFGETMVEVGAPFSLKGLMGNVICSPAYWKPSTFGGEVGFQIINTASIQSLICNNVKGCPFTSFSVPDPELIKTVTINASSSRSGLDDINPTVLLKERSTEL
Description: Fresh blood was collected in heparinized (8 U/ml, Roche, Switzerland) tubes by venipuncture from both male and female volunteers with consent The subjects had no apparent inflammatory conditions and had not taken any NSAIDs for the last 7 days prior to blood collection. 450 μl aliquots of blood were incubated in deep wells with either 1 μl vehicle (DMSO) or 1 μl of test compound at a final concentration varying from 100 μM-10 nM for 15 min at 37° C. This was followed by incubation of the blood with 50 μl lipopolysaccharide (LPS, Sigma, Germany) 10 μg/ml in 0.1% Hydroxylamine/PBS (Sigma) for 24 h. At the end of incubation the blood was centrifuged at 2000 g for 5 min and […] supernatant was assayed for PGE2 using a immunoassay kit (RD Systems, Germany )
(§1) The data were analysed from 2-3 independent dose response curves with a nonlinear estimation program using GRAPHPAD/Prism and given as pIC50

COX-1 = molecular target: T2, COX-1 (Homo sapiens, UniProt P23219); assay: In vitro Cox-1 assay (whole blood, TxB2); assay type: cell-based; conditions: fresh blood without anticoagulant, clotting 1 h at 37° C., TxB2 immunoassay; read-out: Inhibition of COX-1 activity [measured as pIC50] (converted)
T2 construct: Fresh blood was collected into vacutainers containing no anticoagulants; from tissue; host or cells: fresh whole blood without anticoagulant, allowed to clot
Description: Fresh blood was collected into vacutainers containing no anticoagulants. Aliquots of 450 μl were immediately transferred to deep well plates preloaded with 1 μl of either DMSO or a test compound at final concentration of 100 μM-10 nM. In addition 50 μl of Hydroxylamine/PBS were added and the tubes were vortexed and incubated at 37° C. for 1 h to allow the blood to clot. At the end of incubation, serum was obtained by centrifugation (2000 g/5 min) and the supernatant was assayed for TxB2 using a immunoassay kit (RD Systems, Germany) according to the manufactures instruction.
as §1

T2 sequence (P23219 24-599): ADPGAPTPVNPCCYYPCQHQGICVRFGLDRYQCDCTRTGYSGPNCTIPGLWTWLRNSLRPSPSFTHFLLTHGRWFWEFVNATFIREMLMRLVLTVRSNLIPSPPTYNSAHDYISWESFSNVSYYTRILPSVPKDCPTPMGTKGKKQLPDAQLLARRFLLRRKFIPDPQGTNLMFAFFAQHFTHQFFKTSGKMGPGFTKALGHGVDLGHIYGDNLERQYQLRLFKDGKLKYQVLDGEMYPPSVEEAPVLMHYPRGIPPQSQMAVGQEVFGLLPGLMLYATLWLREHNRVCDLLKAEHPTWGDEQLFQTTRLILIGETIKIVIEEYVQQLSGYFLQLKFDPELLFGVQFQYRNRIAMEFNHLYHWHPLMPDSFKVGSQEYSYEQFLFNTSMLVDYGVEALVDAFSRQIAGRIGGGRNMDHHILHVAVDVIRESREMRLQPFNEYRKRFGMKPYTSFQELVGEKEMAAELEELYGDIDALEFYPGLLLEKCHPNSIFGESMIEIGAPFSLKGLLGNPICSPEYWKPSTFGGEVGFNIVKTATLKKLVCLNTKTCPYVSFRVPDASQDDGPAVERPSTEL

O=C(Cc1cscc1Nc1c(Cl)cccc1Cl)OCCCCO[N+](=O)[O-] [Compound 1, [4-(2,6-Dichlorophenylamino)-thiophen-3-yl]-acetic acid 4-nitrooxybutyl ester]
IC50 (COX-2): 72.4 nM | IC50 (COX-1): 89.1 nM
